Data from patent publication US9265253B2, “Use of macrocyclic picolinamides as fungicides” (DOW AGROSCIENCES LLC, priority 2013, dated 2016).
Like-named read-outs stand apart in the source and are kept apart here.

Key:
Format in all cases: in vivo
[1] = system: Mycosphaerella graminicola; Anamorph: Septoria tritici; experiment: Leaf Blotch of Wheat (SEPTTR) disease control; conditions: Zymoseptoria tritici; for pest or weed control at 100 ppm: rate 100 ppm; for pest or weed control at 121.5 g/ha: rate 121.5 g/H
In short: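 Percent disease control is derived from Septoria tritici leaf blotch severity (0 to 100 percent) on treated versus untreated wheat seedlings. Plants get fungicide spray to run-off, with inoculation either preceding or following application, then humid incubation at 20° C.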

[2] = system: Puccinia triticina; Synonym: Puccinia recondite f. Sp. Tritici; experiment: Wheat Brown Rust (PUCCRT) disease control; conditions: Puccinia triticina, topical; for pest or weed control at 100 ppm: rate 100 ppm; for pest or weed control at 121.5 g/ha: rate 121.5 g/H
In short: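 Brown rust on first-leaf Yuma wheat: spore inoculation before or after spray application (acetone/Triton X-100 solution, or EC with Trycol in track spray), overnight 100% RH at 22 °C, disease developed at 24 °C. Severity scored 0–100% and converted to percent control against untreated.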

Phakopsora pachyrhizi = experiment: Asian Soybean Rust (PHAKPA) disease control; conditions: Phakopsora pachyrhizi, topical
Experimental: Technical grades of materials were dissolved in acetone, which were then mixed with nine volumes of water containing 0.011% Tween 20. The fungicide solutions were applied onto soybean seedlings using an automated booth sprayer to run-off. All sprayed plants were allowed to air dry prior to further handling.
Soybean plants (variety Williams 82) were grown in soil-less Metro mix, with one plant per pot. Two weeks old seedlings were used for testing. Plants were inoculated either 3 days prior to or 1 day after fungicide treatments. Plants were incubated for 24 h in a dark dew room at 22° C. and 100% RH then transferred to a growth room at 23° C. for disease to develop. Disease severity was assessed on the sprayed leaves.

[3] = 24 h, 1 Day Protectant, read-out: SEPTTR 1 DP disease control
[4] = 72 h, 3 Day Curative, read-out: SEPTTR 3 DC disease control
[5] = 24 h, 1 Day Protectant, read-out: PUCCRT 1 DP disease control
[6] = 72 h, 3 Day Curative, read-out: PUCCRT 3 DC disease control
[7] = 24 h, 1 Day Protectant, read-out: Disease Control PHAKPA 1DP
[8] = 72 h, 3 Day Curative, read-out: Disease Control PHAKPA 3DC

Structure (SMILES) | pest or weed control at 100 ppm [1, 3] [%] | pest or weed control at 121.5 g/ha [1, 3] [%] | pest or weed control at 100 ppm [1, 4] [%] | pest or weed control at 121.5 g/ha [1, 4] [%] | pest or weed control at 100 ppm [2, 5] [%] | pest or weed control at 121.5 g/ha [2, 5] [%] | pest or weed control at 100 ppm [2, 6] [%] | pest or weed control at 121.5 g/ha [2, 6] [%] | pest or weed control at 25 ppm (Phakopsora pachyrhizi; [7]) [%] | pest or weed control at 25 ppm (Phakopsora pachyrhizi; [8]) [%]
CCOCC(=O)OCOc1c(OC)ccnc1C(=O)N[C@H]1CCC[C@H](CCC(C)C)[C@@H](OCC2CC2)[C@H](C)OC1=O [Compound F160] | 80 to 100 | 80 to 100 | 80 to 100 | 80 to 100 | 80 to 100 | 80 to 100 | 80 to 100 | 80 to 100 | 80 to 100 | 80 to 100
CCOCC(=O)OCOc1c(OC)ccnc1C(=O)N[C@H]1CCC[C@H](CCOC)[C@@H](OCC(C)C)[C@H](C)OC1=O [Compound F187] | 80 to 100 | 80 to 100 | 80 to 100 | 80 to 100 | 80 to 100 | 80 to 100 | 80 to 100 | 80 to 100 | 80 to 100 | 80 to 100
COc1ccnc(C(=O)N[C@H]2CCC[C@H](C)[C@@H](Oc3ccccc3)[C@H](C)OC2=O)c1OCOC(C)=O [Compound F124] | 80 to 100 | 80 to 100 | 80 to 100 | 80 to 100 | 80 to 100 | 80 to 100 | 80 to 100 | 80 to 100 | 80 to 100 | 80 to 100
COCC[C@H]1CCC[C@H](NC(=O)c2nccc(OC)c2OCOC(C)=O)C(=O)O[C@@H](C)[C@@H]1OCC(C)C [Compound F132] | 80 to 100 | 80 to 100 | 80 to 100 | 80 to 100 | 80 to 100 | 80 to 100 | 80 to 100 | 80 to 100 | 80 to 100 | 80 to 100
COc1ccnc(C(=O)N[C@H]2CCC[C@H](CCC(C)C)[C@@H](OCC3CC3)[C@H](C)OC2=O)c1OCOC(C)=O [Compound F91] | 80 to 100 | 80 to 100 | 80 to 100 | 80 to 100 | 80 to 100 | 80 to 100 | 80 to 100 | 80 to 100 | 80 to 100 | 80 to 100
COc1ccnc(C(=O)N[C@H]2CCC[C@H](CCC(C)C)[C@@H](OCC3CC3)[C@H](C)OC2=O)c1OC(C)=O [Compound F63] | 80 to 100 | 80 to 100 | 80 to 100 | 80 to 100 | 80 to 100 | 80 to 100 | 80 to 100 | 80 to 100 | 80 to 100 | 80 to 100
COc1ccnc(C(=O)N[C@H]2CCC[C@H](C)[C@@H](Oc3ccccc3)[C@H](C)OC2=O)c1OCOC(=O)C(C)C [Compound F155] | 80 to 100 | 80 to 100 | 80 to 100 | 80 to 100 | 80 to 100 | 80 to 100 | 80 to 100 | 80 to 100 | 80 to 100 | 80 to 100
COc1ccnc(C(=O)N[C@H]2CCC[C@H](CCC(C)C)[C@@H](OCC3CC3)[C@H](C)OC2=O)c1OCOC(=O)C(C)C [Compound F149] | 80 to 100 | 80 to 100 | 80 to 100 | 80 to 100 | 80 to 100 | 80 to 100 | 80 to 100 | 80 to 100 | 80 to 100 | 0 to 80
